ChEMBL document CHEMBL4346757, “Synthesis and biological evaluation of 7-methoxy-1-(3,4,5-trimethoxyphenyl)-4,5-dihydro-2H-benzo[e]indazoles as new colchicine site inhibitors” (Bioorg Med Chem Lett, 2019)

Legend:
SF-539 [1] = experiment: Growth inhibition of human SF539 cells assessed as cell growth at 0.01 uM after 48 hrs by SRB assay relative to control; assay type: functional; details: SF-539, 48 h, read-out: Activity
HCC 2998 = experiment: Growth inhibition of human HCC2998 cells assessed as cell growth at 0.1 uM after 48 hrs by SRB assay relative to control; assay type: functional; details: HCC 2998, 48 h, read-out: Activity
MOLT-4 = experiment: Growth inhibition of human MOLT4 cells assessed as cell growth at 100 uM after 48 hrs by SRB assay relative to control; assay type: functional; details: MOLT-4, 48 h, read-out: Activity
SK-MEL-28 = experiment: Growth inhibition of human SK-MEL-28 cells assessed as cell growth at 10 uM after 48 hrs by SRB assay relative to control; assay type: functional; details: SK-MEL-28, 48 h, read-out: Activity
LOX IMVI [2] = experiment: Growth inhibition of human LOXIMVI cells assessed as cell growth at 10 uM after 48 hrs by SRB assay relative to control; assay type: functional; details: read-out: Activity
CCRF-CEM = experiment: Cytotoxicity against human CCRF-CEM cells assessed as growth inhibition after 48 hrs by SRB assay; assay type: functional
BT-549 = experiment: Growth inhibition of human BT549 cells assessed as cell growth at 10 uM after 48 hrs by SRB assay relative to control; assay type: functional; details: BT-549, 48 h, read-out: Activity
786-0 = experiment: Growth inhibition of human 786-0 cells assessed as cell growth at 10 uM after 48 hrs by SRB assay relative to control; assay type: functional; details: 786-0, 48 h, read-out: Activity
UACC-257 = experiment: Growth inhibition of human UACC257 cells assessed as cell growth at 10 uM after 48 hrs by SRB assay relative to control; assay type: functional; details: UACC-257, 48 h, read-out: Activity
Tubulin = Tubulin (Bos taurus, UniProt Q6B856+Q862L2+Q862F3); experiment: Inhibition of bovine brain tubulin polymerization measured every 1 min for 60 mins by turbidimetry based microplate reader analysis
U-251 [3] = experiment: Growth inhibition of human U251 cells assessed as cell growth at 0.01 uM after 48 hrs by SRB assay relative to control; assay type: functional; details: U-251, 48 h, read-out: Activity
ACHN = experiment: Growth inhibition of human ACHN cells assessed as cell growth at 1 uM after 48 hrs by SRB assay relative to control; assay type: functional; details: read-out: Activity
OVCAR-3 = experiment: Cytotoxicity against human OVCAR3 cells assessed as growth inhibition after 48 hrs by SRB assay; assay type: functional; details: OVCAR-3, 48 h
HOP-62 [4] = experiment: Growth inhibition of human HOP62 cells assessed as cell growth at 0.1 uM after 48 hrs by SRB assay relative to control; assay type: functional; details: HOP-62, 48 h, read-out: Activity
HOP-62 [5] = experiment: Growth inhibition of human HOP62 cells assessed as cell growth at 10 uM after 48 hrs by SRB assay relative to control; assay type: functional; details: HOP-62, 48 h, read-out: Activity
OVCAR-8 [6] = experiment: Growth inhibition of human OVCAR8 cells assessed as cell growth at 10 uM after 48 hrs by SRB assay relative to control; assay type: functional; details: OVCAR-8, 48 h, read-out: Activity
PC-3 = experiment: Cytotoxicity against human PC3 cells assessed as growth inhibition after 48 hrs by SRB assay; assay type: functional; details: PC-3, 48 h
M14 = experiment: Growth inhibition of human M14 cells assessed as cell growth at 0.01 uM after 48 hrs by SRB assay relative to control; assay type: functional; details: M14, 48 h, read-out: Activity
U-251 [7] = experiment: Cytotoxicity against human U251 cells assessed as growth inhibition after 48 hrs by SRB assay; assay type: functional; details: U-251, 48 h
OVCAR-8 [8] = experiment: Growth inhibition of human OVCAR8 cells assessed as cell growth at 0.01 uM after 48 hrs by SRB assay relative to control; assay type: functional; details: OVCAR-8, 48 h, read-out: Activity
SF-539 [9] = experiment: Growth inhibition of human SF539 cells assessed as cell growth at 10 uM after 48 hrs by SRB assay relative to control; assay type: functional; details: SF-539, 48 h, read-out: Activity
IGROV-1 = experiment: Growth inhibition of human IGROV1 cells assessed as cell growth at 0.01 uM after 48 hrs by SRB assay relative to control; assay type: functional; details: IGROV-1, 48 h, read-out: Activity
UACC-62 [10] = experiment: Growth inhibition of human UACC62 cells assessed as cell growth at 0.01 uM after 48 hrs by SRB assay relative to control; assay type: functional; details: UACC-62, 48 h, read-out: Activity
SW-620 = experiment: Growth inhibition of human SW620 cells assessed as cell growth at 0.01 uM after 48 hrs by SRB assay relative to control; assay type: functional; details: SW-620, 48 h, read-out: Activity
SK-MEL-5 = experiment: Growth inhibition of human SK-MEL-5 cells assessed as cell growth at 0.01 uM after 48 hrs by SRB assay relative to control; assay type: functional; details: SK-MEL-5, 48 h, read-out: Activity
UACC-62 [11] = experiment: Growth inhibition of human UACC62 cells assessed as cell growth at 10 uM after 48 hrs by SRB assay relative to control; assay type: functional; details: UACC-62, 48 h, read-out: Activity
A549 = experiment: Growth inhibition of human A549/ATCC cells assessed as cell growth at 0.1 uM after 48 hrs by SRB assay relative to control; assay type: functional; details: A549, 48 h, read-out: Activity
K562 = experiment: Growth inhibition of human K562 cells assessed as cell growth at 1 uM after 48 hrs by SRB assay relative to control; assay type: functional; details: K562, 48 h, read-out: Activity
T47D = experiment: Growth inhibition of human T47D cells assessed as cell growth at 0.1 uM after 48 hrs by SRB assay relative to control; assay type: functional; details: read-out: Activity
NCI-H23 = experiment: Growth inhibition of human NCI-H23 cells assessed as cell growth at 10 uM after 48 hrs by SRB assay relative to control; assay type: functional; details: NCI-H23, 48 h, read-out: Activity
LOX IMVI [12] = experiment: Growth inhibition of human LOXIMVI cells assessed as cell growth at 1 uM after 48 hrs by SRB assay relative to control; assay type: functional; details: read-out: Activity
NCI-H322M = experiment: Growth inhibition of human NCI-H322M cells assessed as cell growth at 1 uM after 48 hrs by SRB assay relative to control; assay type: functional; details: read-out: Activity
[13] = read-out: LC50 (the source's name)
[14] = read-out: pLC50 (the source's name) (converted)

COc1ccc2c(c1)CCc1n[nH]c(-c3cc(OC)c(OC)c(OC)c3)c1-2
growth at 0.01 µM (SF-539 [1]): -12%
growth at 0.1 µM (HCC 2998): 11%
growth at 100 µM (MOLT-4): 6%
growth at 10 µM (SK-MEL-28): 34%
growth at 10 µM (LOX IMVI [2]): 7%
GI50 (CCRF-CEM; read-out: GI50): < 0.01 µM
CC50 (CCRF-CEM; [13]): > 100 µM
TGI (CCRF-CEM; read-out: TGI): > 100 µM
GI50 (CCRF-CEM; read-out: pGI50 (converted)): < 0.01 µM
CC50 (CCRF-CEM; [14]): > 100 µM
TGI (CCRF-CEM; read-out: pTGI): > 100 µM
growth at 10 µM (BT-549): 1%
growth at 10 µM (786-0): 3%
growth at 10 µM (UACC-257): 56%
IC50 (Tubulin): 3.4 µM
growth at 0.01 µM (U-251 [3]): 14%
growth at 1 µM (ACHN): 25%
GI50 (OVCAR-3; read-out: GI50): < 0.01 µM
LC50 (50% lethal concentration) (OVCAR-3; read-out: LC50): 75.5 µM
TGI (OVCAR-3; read-out: TGI): 14.7 µM
GI50 (OVCAR-3; read-out: pGI50 (converted)): < 0.01 µM
LC50 (50% lethal concentration) (OVCAR-3; read-out: pLC50 (converted)): 75.9 µM
TGI (OVCAR-3; read-out: pTGI (converted)): 14.8 µM
growth at 0.1 µM (HOP-62 [4]): 6%
growth at 10 µM (HOP-62 [5]): 3%
growth at 10 µM (OVCAR-8 [6]): 9%
GI50 (PC-3; read-out: GI50): < 0.01 µM
CC50 (PC-3; [13]): > 100 µM
TGI (PC-3; read-out: TGI): 17.8 µM
GI50 (PC-3; read-out: pGI50 (converted)): < 0.01 µM
CC50 (PC-3; [14]): > 100 µM
TGI (PC-3; read-out: pTGI (converted)): 17.8 µM
growth at 0.01 µM (M14): 2%
GI50 (U-251 [7]; read-out: GI50): < 0.01 µM
CC50 (U-251 [7]; [13]): 51.3 µM
TGI (U-251 [7]; read-out: TGI): 11.5 µM
GI50 (U-251 [7]; read-out: pGI50 (converted)): < 0.01 µM
CC50 (U-251 [7]; [14]): 51.3 µM
TGI (U-251 [7]; read-out: pTGI (converted)): 11.5 µM
growth at 0.01 µM (OVCAR-8 [8]): 15%
growth at 10 µM (SF-539 [9]): -24%
growth at 0.01 µM (IGROV-1): 39%
growth at 0.01 µM (UACC-62 [10]): 23%
growth at 0.01 µM (SW-620): 16%
growth at 0.01 µM (SK-MEL-5): -6%
growth at 10 µM (UACC-62 [11]): 10%
growth at 0.1 µM (A549): 11%
growth at 1 µM (K562): 18%
growth at 0.1 µM (T47D): 74%
growth at 10 µM (NCI-H23): -6%
growth at 1 µM (LOX IMVI [12]): 18%
growth at 1 µM (NCI-H322M): 42%
